Laboratory results published in patent US8044071B2, “Method for reducing side effects of CB2 receptor agonist therapy using a combination of a selective CB2 receptor agonist and a selective CB1 receptor antagonist” (Abbott Laboratories, priority 2007, dated 2011).

Test system: skin incision model of postoperative pain
Assay: Skin incision model of postoperative pain (tactile allodynia, von Frey)
Format: in vivo
Conditions: rat, rimonabant 30 μmol/kg i.p., vehicle 15 min later
Source text: Adult male Sprague-Dawley rats (250-300 g body weight, Charles River Laboratories, Portage, Mich.) were used. Animal handling and experimental protocols were approved by the Institutional Animal Care and Use Committee (IACUC) at Abbott Laboratories. For all surgical procedures, animals were maintained under halothane anesthesia (4% to induce, 2% to maintain), and the incision sites were sterilized using a 10% povidone-iodine solution prior to and after surgeries.
A skin incision model of postoperative pain was produced using the procedures described in Brennan et al., 1996, Pain, 64, 493. All rats were anesthetized with isoflurane delivered via a nose cone. Right hind paw incision was performed following sterilization procedures. The plantar aspect of the […] hind paw was placed through a hole in a sterile plastic drape. A 1-cm longitudinal incision was made through the skin and fascia of the plantar aspect of the hind paw, starting 0.5 cm from the proximal edge of the heel and extending towards the toes, the plantar muscle was elevated and incised longitudinally leaving the muscle origin and insertion points intact. The skin was then closed with two mattress sutures (5-0 nylon). After surgery, animals were then allowed to recover for 2 hours, at which time tactile allodynia was assessed as described below. To evaluate the anti-nociceptive effects, animals were i.p. administered vehicle or test compound 90 minutes following skin incision and tactile allodynia was typically assessed 30 minutes after compound administration.
Tactile allodynia was measured using calibrated von Frey filaments (Stoelting, Wood Dale, Ill.) as described in Chaplan, S. R., F. W. Bach, J. W. Porgrel, J. M. Chung and T. L. Yaksh, 1994, Quantitative assessment of tactile allodynia in the rat paw, J. Neurosci. Methods, 53, 55. Rats were placed into inverted individual plastic cage (20×12.5×20 cm) on top of a suspended wire mesh grid, and acclimated to the test chambers for 20 minutes. The von Frey filaments were applied perpendicularly from underneath the cage through openings in the wire mesh floor directly to an area within 1-3 mm (immediately adjacent) of the incision, and then held in this position for approximately 8 seconds with enough force to cause a slight bend in the filament. Positive responses included an abrupt withdrawal of the hind paw from the stimulus, or flinching behavior immediately following removal of the stimulus. A 50% withdrawal threshold was determined using an up-down procedure as described in Dixon, W. J., 1980, Efficient analysis of experimental observations, Ann. Rev. Pharmacol. Toxicol., 20, 441. The effect on paw withdrawal latency of test compounds compared to vehicle control represents the ability of the test compound to reduce allodynia. An increase in the paw withdrawal latency represents an anti-allodynic effect (i.e., a decrease in pain).
Using the skin incisional model of postoperative pain, the effects of compound A, CB2 agonist (Z)—N-(5-tert-butyl-3-butylthiazol-2(3H)-ylidene)-5-chloro-2-methoxybenzamide, on allodynia was assessed two hours after surgery.
Using the skin incisional model of postoperative pain, the effects of CB2 agonist A were evaluated after the administration of vehicle or the CB1 antagonist rimonabant. This effect was compared with the administration of vehicle after the administration of vehicle or the CB1 antagonist rimonabant. A first dose, consisting of CB1 antagonist rimonabant (30 μmol/kg i.p.) or a vehicle (5% DMSO/PEG), was administered 15 minutes before a second dose, consisting of administration of CB2 agonist A (30 μmol/kg i.p.) or vehicle. Allodynia testing was conducted 30 minutes after administration of the second dose, either CB2 agonist A or vehicle.

Structure (SMILES): Cc1c(C(=O)NN2CCCCC2)nn(-c2ccc(Cl)cc2Cl)c1-c1ccc(Cl)cc1 [rimonabant, 5-(4-chlorophenyl)-1-(2,4-dichlorophenyl)-4-methyl-N-(piperidin-1-yl)-1H-pyrazole-3-carboxamide, reference compound]
- tactile allodynia, rimonabant followed by vehicle: did not ameliorate the tactile allodynia
